Reference: patent US5654451A, “Amino acids and peptides having modified C-terminals and modified N-terminals” (Magainin Pharmaceuticals Inc., priority 1995, dated 1997)
≈ marks a conversion by molar mass, not a printed value. Where “and” joins values, the source holds several entries; their conditions need not be identical. Identical values can stand only once.

Experiments:
Assay in all cases: Antimicrobial assay (MIC, microtiter broth dilution)
Format in all cases: cell-based
[1] = system: C. albicans; details: for MIC Candida: Table VI; for MIC C. albicans: Table I
Procedure: (§1) The procedure for the antimicrobial assay is based upon the guidelines of the National Committee for Clinical Laboratory Standards, Document M7-T2, Volume 8, No. 8, 1988.
(§2) 1-5×10^5 CFUs/ml of either S. aureus ATCC 25923, E. coli ATCC 25922, P. aeruginosa ATCC 27853, or C. albicans were added to the wells in full strength Mueller Hinton broth (BBL 11443) from a mid-log culture. The inoculum is standardized spectrophotometrically at 600 nm and is verified by colony counts. The plates are incubated for 16-20 hours at 37° C., and the minimal inhibitory concentrations (MIC) for the compounds are determined. Minimal inhibitory concentration is defined as the lowest concentration of amino acid or peptide which produces a clear well in the microtiter plate.

[2] = system: E. coli
Procedure: as §1, §2

[3] = system: P. aeruginosa; details: for MIC Psuedo: Table VI; for MIC P aeruginosa: Table I, P. aeruginosa ATCC 27853
Procedure: as §1, §2

[4] = system: S. aureus; details: for MIC Staph: Table VI; for MIC S. aureus: Table I, S. aureus ATCC 25923
Procedure: as §1, §2

Compound	MIC Candida [1]	MIC E. coli ([2]; Table VI) [µg/mL]	MIC Psuedo [3]	MIC Staph [4] [µg/mL]	MIC C. albicans [1] [µg/mL]	MIC E. coli ([2]; Table I, E. coli ATCC 25922) [µg/mL]	MIC P aeruginosa [3] [µg/mL]	MIC S. aureus [4]
CCCCCCCCN(CCCCCCCC)C(=O)[C@@H](Cc1ccccc1)NC(=N)N [Compound 70, N^α -Amidino-D Phe-dioctylamide]	2 µg/mL (≈ 4.64 µM)	64 (≈ 149 µM)	256 µg/mL (≈ 594 µM)	2 (≈ 4.64 µM)	–	–	–	–
CCCCCCCCN(CCCCCCCC)C(=O)C(Cc1cnc[nH]1)NC(=N)N (stereo not drawn) [Compound 78, N^α -Amidino-His-dioctylamide]	1 µg/mL (≈ 2.38 µM)	4 (≈ 9.51 µM)	8 µg/mL (≈ 19 µM)	1 (≈ 2.38 µM)	–	–	–	–
NC(N)=NCCCC(N)C(=O)Nc1ccc(C=Cc2ccc(NC(=O)C(N)CCCN=C(N)N)cc2)cc1 (stereo not shown) [Compound 49, 4,4'-[Di-Arg] diaminostilbene]	64 µg/mL (≈ 122 µM)	256 (≈ 490 µM)	128 µg/mL (≈ 245 µM)	8 (≈ 15.3 µM)	–	–	–	–
CCCCCCCCN(CCCCCCCC)C(=O)C(Cc1ccc2ccccc2c1)N=C(N)N (stereo not drawn) [Compound 73, N^α -Amidino-β-Nal-dioctylamide]	4 µg/mL (≈ 8.32 µM)	> 256	> 256 µg/mL	4 (≈ 8.32 µM)	–	–	–	–
CCCCCCCCN(CCCCCCCC)C(=O)C(Cc1c[nH]c2ccccc12)NC(=N)N (stereo not drawn) [Compound 66, N^α -Amidino-Trp-dioctylamide]	16 µg/mL (≈ 34.1 µM)	256 (≈ 545 µM)	256 µg/mL (≈ 545 µM)	8 (≈ 17 µM)	–	–	–	–
N-α-amidino phenylalanyl tetradecylamide [Compound 33]	–	–	–	–	16	128	> 256	8 µg/mL
CCCCCCCCN(CCCCCCCC)C(=O)C(Cc1ccccc1)N=C(N)N (stereo not drawn) [Compound 32, N-α-amidino-phenylalanyl dioctylamide]	–	–	–	–	2 (≈ 4.64 µM)	8 (≈ 18.6 µM)	128 (≈ 297 µM)	1,2 μg/ml
CCCCCCCCN(CCCCCCCC)C(=O)C(N)Cc1ccccc1 (stereo not shown) [Compound 81, Phe-dioctylamide]	> 256 µg/mL	> 256	> 256 µg/mL	4 (≈ 10.3 µM)	–	–	–	–
N-α-amidino-phenylalanyl dodecylamide [Compound 31]	–	–	–	–	4	8	64	2 µg/mL
CCCCCCCCN(CCCCCCCC)C(=O)C(Cc1ccc(N)cc1)NC(=N)N (stereo not drawn) [Compound 88, N^α -Amidino-p-amino-Phe-dioctylamide]	0.5 µg/mL (≈ 1.12 µM)	4 (≈ 8.97 µM)	32 µg/mL (≈ 71.8 µM)	1 (≈ 2.24 µM)	–	–	–	–
CCCCCCCCN(CCCCCCCC)C(=O)C(Cc1ccc(F)cc1)NC(=N)N (stereo not drawn) [Compound 83, N^α -Amidino-p-F-Phe-diocytlamide]	2 µg/mL (≈ 4.46 µM)	64 (≈ 143 µM)	128 µg/mL (≈ 285 µM)	2 (≈ 4.46 µM)	–	–	–	–
CCCCCN(CCCCC)C(=O)C(Cc1ccccc1)NC(=N)N (stereo not drawn) [Compound 67, N^α -Amidino-Phe-dipentylamide]	64 µg/mL (≈ 185 µM)	64 (≈ 185 µM)	128 µg/mL (≈ 369 µM)	4 (≈ 11.5 µM)	–	–	–	–
β-Guanidino-propionyl adamantanamide [Compound 82]	> 256 µg/mL	> 256	> 256 µg/mL	64	–	–	–	–
CCCCCCN(CCCCCC)C(=O)C(Cc1ccccc1)NC(=N)N (stereo not drawn) [Compound 68, N^α -Amidino-Phe-dihexylamide]	4 to 16 µg/mL	16 to 32	16 to 64 µg/mL	0.5 to 1.0	–	–	–	–
N-α-amidino phenylalanyl hexadecylamide [Compound 34]	–	–	–	–	64	> 256	> 256	32 µg/mL
CCCCCCCCN(CCCCCCCC)C(=O)CC(O)CNC(=N)N (stereo not drawn) [Compound 84, γ-Guanidino-β-hydroxy butyrul dioctylamide]	0.5 µg/mL (≈ 1.3 µM)	4 (≈ 10.4 µM)	16 µg/mL (≈ 41.6 µM)	1 (≈ 2.6 µM)	–	–	–	–
CCCCCCCCN(CCCCCCCC)C(=O)CCNC(=O)CC(O)CNC(=N)N (stereo not drawn) [Compound 87, γ-Guanidino-β-hydroxy butyryl-β-Ala-dioctylamide]	0.5 µg/mL (≈ 1.1 µM)	4 (≈ 8.78 µM)	16 µg/mL (≈ 35.1 µM)	2 (≈ 4.39 µM)	–	–	–	–
NC(N)=NCCCC(N)C(=O)NCCCCCCCCCCCCNC(=O)C(N)CCCN=C(N)N (stereo not shown) [Compound 8, 1,12-[di-arginyl]diaminododecane]	–	–	–	–	> 256	> 256	> 256	128 µg/mL (≈ 250 µM)

Compound	MIC Candida [1]	MIC E. coli ([2]; Table VI) [µg/mL]	MIC Psuedo [3]	MIC Staph [4] [µg/mL]	MIC C. albicans [1] [µg/mL]	MIC E. coli ([2]; Table I, E. coli ATCC 25922) [µg/mL]	MIC P aeruginosa [3] [µg/mL]	MIC S. aureus [4]
β-Guanidino-propionyl dodecylamide [Compound 37]	4 µg/mL	4 to 8	16 µg/mL	1	–	–	–	–
N-α-amidino phenylalanyl heptylamide [Compound 27]	–	–	–	–	64	128	128	8 µg/mL
γ-Guanidino-butyryl dioctylamide [Compound 71]	< 0.25 µg/mL	4	32 µg/mL	0.5 to 1.0	–	–	–	–
N=C(N)NC(CCC(=O)NC12CC3CC(CC(C3)C1)C2)C(=O)NC12CC3CC(CC(C3)C1)C2 (stereo not drawn) [Compound 86, N^α -Amidino-Glu-(α,γ) diadamantanamide]	32 to 64 µg/mL	128 (≈ 281 µM)	128 µg/mL (≈ 281 µM)	4 (≈ 8.78 µM)	–	–	–	–
CCCCCCCCCCCCNC(=O)c1ccc(CNC(=N)N)cc1 [Compound 38, P-Guanidino-methyl-benzoyl-dodecylamide]	4 µg/mL (≈ 11.1 µM)	16 (≈ 44.4 µM)	64 µg/mL (≈ 178 µM)	1 to 2	–	–	–	–
CCCCCCCCN(CCCCCCCC)C(=O)[C@H](Cc1ccccc1)NC(=O)CC(O)CNC(=N)N (stereo partly drawn) [Compound 85, γ-Guanidino-β-hydroxy butyryl-Phe-dioctylamide]	0.5 µg/mL (≈ 0.94 µM)	32 (≈ 60.2 µM)	64 µg/mL (≈ 120 µM)	1 (≈ 1.88 µM)	–	–	–	–
N=C(N)NC(Cc1ccccc1)C(=O)Nc1ccc(C=Cc2ccc(NC(=O)C(Cc3ccccc3)NC(=N)N)cc2)cc1 (stereo not drawn) [Compound 47, 4,4'-[Di-(N^α -amidino-Phe)] diaminostilbene]	256 µg/mL (≈ 435 µM)	16 (≈ 27.2 µM)	32 µg/mL (≈ 54.4 µM)	05 to 10	–	–	–	–
CCCCCCCNC(=O)C(Cc1ccc(C(=N)N)cc1)NC(=N)N (stereo not drawn) [Compound 29, p-guanyl-N-α-amidino-phenylalanyl heptylamide]	–	–	–	–	256 (≈ 739 µM)	> 256	> 256	64 µg/mL (≈ 185 µM)
β-Guanidino-propionyl dioctylamide [Compound 75]	1.0 µg/mL	4 to 8	16 µg/mL	0.5 to 1.0	–	–	–	–
CCCCCCCCN(CCCCCCCC)C(=O)CCCCNC(=N)N [Compound 79, S-Guanidino Valeryl-dioctylamide]	1 to 2 µg/mL	8 (≈ 20.9 µM)	> 256 µg/mL	2 (≈ 5.23 µM)	–	–	–	–
N=C(N)NC(Cc1ccccc1)C(=O)NC1CCCCC1 (stereo not drawn) [Compound 77, N^α -Amidino-Phe-cyclohexylamide]	> 256 µg/mL	> 256	> 256 µg/mL	128 (≈ 444 µM)	–	–	–	–
N=C(N)NC(Cc1ccccc1)C(=O)NC12CC3CC(CC(C3)C1)C2 (stereo not drawn) [Compound 76, N^α -Amidino-Phe-adamantanamide]	128 µg/mL (≈ 376 µM)	256 (≈ 752 µM)	256 µg/mL (≈ 752 µM)	16 (≈ 47 µM)	–	–	–	–
p-Guanidino methyl-benzoyl dioctylamide [Compound 72]	0.5 µg/mL	4	64 µg/mL	1	–	–	–	–
CCCCCCCCN(CCCCCCCC)C(=O)C(Cc1ccccc1)NCc1ncc[nH]1 (stereo not drawn) [Compound 80, N^α -(Imidazole-2-methyl)-Phe-dioctylamide]	> 256 µg/mL	> 256	> 256 µg/mL	2 (≈ 4.27 µM)	–	–	–	–
phenylalanyl heptylamide [Compound 26]	–	–	–	–	128	128	> 256	256 µg/mL
CCCCCCCCN(CCCCCCCC)C(=O)C(CC1CCCCC1)NC(=N)N (stereo not drawn) [Compound 74, N^α -Amidino-Cha-dioctylamide]	2 µg/mL (≈ 4.58 µM)	> 256	> 256 µg/mL	2 (≈ 4.58 µM)	–	–	–	–
N^α -Amidino-Phe-didecylamide [Compound 69]	32 µg/mL and 64 µg/mL	16	> 256 µg/mL and 256 µg/mL	–	–	–	–	–
